Test results taken from US10696615B2, “Prenylated hydroxystilbenes” (The University of Sydney, priority 2011, dated 2020).
Values after ≈ are worked out from the molar mass of the structure shown. Read-outs that look alike come from different tables or passages of the source.

Experiments:
[1] = test system: BT-549; assay: NCI in vitro cancer screen, Breast Cancer; format: cell-based, human; details: for GI50 / CC50: Homo sapiens; for CC50: read-out: LC50 (the source's name)
[2] = Calculated Log partition coefficients (Log P)
[3] = target: CDK2/CyclinA2 (Homo sapiens, UniProt P24941); assay: Kinase activity assay; format: biochemical; details: listed = inhibited more than 60%
Experimental: (§1) • Kinase-Glo(Plus)/ADP-Gloassay buffer 25 mMHEPES, 10 mMMgCl2, 0.01% Triton X-100, 100 μg/mLBSA, 2.5 mMDTT, pH7.4. • Caliper assay buffer 100 mMHEPES, 10 mMMgCl2, 100 μl/L Brij35 (30%), 1 mMDTT, pH7.4. Assay Substrates • MBP protein, UnactiveMEK1, Rbprotein were purchased from SignalChem. Poly(glu:tyr)(4:1) was purchased from Sigma. PIP2 was purchased from Cayman. Peptide substrates were synthesized in HD Biosciences, China. ATP was purchased from Sigma. KinaseGloPlus reagent, KinaseGloreagent and ADP Gloreagent were purchased from Promega Assay Procedure—Caliper Format
(§2) Mix Kinases, substrate, ATP and compound in 96-well assay plate, total volume is 50 μL. Incubate assay plate at 30° C. for 1 hour. Stop reaction by adding 20 μL of 35 mM EDTA and transfer 26 μL stopped reaction to 384-well assay plate. Read the assay plate on the plate reader.
(§3) Mix Kinases, substrate, ATP and compound in 384-well assay plate, total volume is 10 μl. Incubate assay plate at 30° C. for 1 hour. Add 10 μl/well of ADP GloReagent to the assay plate, incubate at 27° C. for 40 min.
(§4) Add 20 μl/well Detection Reagent to the assay plate, incubate at 27° C. for 30 min. Read the assay plate on the plate reader
(§5) Mix Kinase, substrate, ATP and compound in 384-well assay plate, total volume is 10 μl. Incubate assay plate at 30° C. for 1 hour. Add 10 μl/well KinaseGlo(Plus) reagent to the reaction mixture, and then incubate at 27° C. for 20 min. Read the assay plate on plate reader. • Hundred percent effect was performed without compound and enzyme, but containing ATP and substrate. • Zero percent effect was carried out without compound, but containing ATP, substrate and enzyme. • SB202190 is reference compounds for kinase p38β; Staurosporine(STSP) is reference compound for the remaining kinases. Results

[4] = target: CDK4/CyclinD3 (Homo sapiens, UniProt P11802); assay: Kinase activity assay; format: biochemical; details: listed = inhibited more than 60%
Experimental: as §1, §2, §3, §4, §5

[5] = target: FLT3 (Homo sapiens, UniProt P36888); assay: Kinase activity assay; format: biochemical; details: listed = inhibited more than 60%
Experimental: as §1, §2, §3, §4, §5

[6] = target: PI3Kα (Homo sapiens, UniProt P42336); assay: Kinase activity assay; format: biochemical; details: listed = inhibited more than 60%
Experimental: as §1, §2, §3, §4, §5

[7] = target: PI3Kγ (Homo sapiens, UniProt P48736); assay: Kinase activity assay; format: biochemical; details: listed = inhibited more than 60%
Experimental: as §1, §2, §3, §4, §5

[8] = target: PI3Kδ (Homo sapiens, UniProt O00329); assay: Kinase activity assay; format: biochemical; details: listed = inhibited more than 60%
Experimental: as §1, §2, §3, §4, §5

[9] = target: TrkA (Homo sapiens, UniProt P04629); assay: Kinase activity assay; format: biochemical; details: listed = inhibited more than 60%
Experimental: as §1, §2, §3, §4, §5

[10] = test system: MRSA; assay: MIC screening, broth microdilution (CLSI)
Experimental: The MICs were determined by the broth microdilution method according to the Clinical and Laboratory Standards Institute (CLSI) guidelines. The MIC screening was performed on 96-well plates containing the compounds in serial 2-fold dilutions from 64 to 0.06 μg/ml. The bacterial inoculations were prepared in cation-adjusted Mueller Hinton medium broth from cultures grown on appropriate agar plates which are prepared freshly every week. The growth controls and sterile controls were included in each assay plates. The assay plates were incubated in an ambient-air incubator at 35±2° C. for 16-20 hr (24 hr for MRSA), and bacterial growth was observed and recorded.
(§6) A. Revive bacterial strains from storage frozen (−80° C.) two days before the MIC screening. Streak onto surface of appropriate agar plates, and incubate the plates for 20-24 hr at 35±2° C. in an appropriate atmosphere.
(§7) B. Select 5-10 well-isolated colonies of similar morphology and restreak onto fresh agar plates using sterile loops. Incubate the plates for 20-24 hr at 35±2° C. in an appropriate atmosphere as above.
(§8) Compound stock solutions were prepared in 100% DMSO on the day of MIC screening and use immediately. Compound stock concentration=[(highest testing concentration)×103 μl/3 μl] (e.g. if the required highest testing concentration is 64 μg/ml in assay plates, stock concentration=64×103/3=2.2 mg/ml). The potency of testing compound is assumed as 100% unless otherwise stated whereas the potency of reference compound is calculated according to manufacturer's analysis data.
(§9) Eleven two-fold dilutions per compound were made then transferred 3 μl to each well of test plate. Final concentration of DMSO in the MIC screening is ˜3%.
(§10) B. Transfer colonies from fresh culture plates into 5 ml of saline with sterile loops and mix well. Measure and adjust turbidity to 0.5 McFarland barium sulphate standard using a turbidity meter. Alternatively, transfer 1-2 colonies into 500 μl of saline and adjust OD625 to ˜0.1 using a plate reader. […] Dilute bacterial inoculum 1:280 for Gram-positive and fastidious strains and 1:400 for Gram-negative strains into corresponding medium broth (CAMHB, CAMHB+3% lysed horse blood, HTM) (e.g. 35.6 μl of inoculum into 10 ml of CAMHB or 25 μl of inoculum into 10 ml of CAMHB). H. influenzae: HTM Streptococci: CAMHB+3% lysed horse blood Other strains in the panel: CAMHB 2.4. Prepare Assay Plates A. Add 100 μl of the bacterial inoculum to each well of the compound plates except wells B12, D12, F12 and H12. B. Add 100 μl of medium broth to wells B12, D12, F12 and H12 of the compound plates. […] Stack four plates together and cover with a sterile plate lid. Incubate in an ambient-air incubator at 35±2° C. for 16-20 hours (24 hours for MRSA). […] Perform Colony Counts A. Dilute the bacterial inoculum (0.5 McFarland) to a serial of 10-1 to 10-7 in saline solution (e.g. 100 μl bacterial inoculum+900 μl of saline). B. Spread 100 μl of each dilution (10-4, 10-5, 10-6, and 10-7) onto CAMHA plates in triplication, let the liquid soak into the agar for 10 minutes, invert the agar plates and incubate for 24 hr at 35±2° C. […] Record MICs and Calculate CFUs A. Open the compound plate layout in the compound management system, and check the assay plate barcode. B. Place the assay plate on the top of MIC reader, and adjust the magnification mirror to read each wells, record growth status as raw data. (Optional) Record photo image of each assay plates using high-speed high-resolution scanner. […] Determine MIC break points according to CLSI guideline. D. Count colonies and calculate CFU of bacterial inoculum.

[11] = test system: Streptococci; assay: MIC screening, broth microdilution (CLSI)
Experimental: (§11) The minimum inhibition concentration (MIC) screening was performed with 14 bacterial strains and 4 compounds. The MICs were determined by the broth microdilution method according to the Clinical and Laboratory Standards Institute (CLSI) guidelines. The MIC screening was performed on 96-well plates containing the compounds in serial 2-fold dilutions from 64 to 0.06 μg/ml. The bacterial inoculations were prepared in cation-adjusted Mueller Hinton medium broth from cultures grown on appropriate agar plates which are prepared freshly every week. The growth controls and sterile controls were included in each assay plates. The assay plates were incubated in an ambient-air incubator at 35±2° C. for 16-20 hr (24 hr for MRSA), and bacterial growth was observed and recorded.
as §6
Streptococci: TSA II, 5% CO2
as §7, §8, §9, §10

[12] = test system: Enterococci; assay: MIC screening, broth microdilution (CLSI)
Experimental: as §11, §6
Enterococci: TSA II, ambient air
as §7, §8, §9
B. Transfer colonies from fresh culture plates into 5 ml of saline with sterile loops and mix well. Measure and adjust turbidity to 0.5 McFarland barium sulphate standard using a turbidity meter. Alternatively, transfer 1-2 colonies into 500 μl of saline and adjust OD625 to ˜0.1 using a plate reader. C. Dilute bacterial inoculum 1:280 for Gram-positive and fastidious strains and 1:400 for Gram-negative strains into corresponding medium broth (CAMHB, CAMHB+3% lysed horse blood, HTM) (e.g. 35.6 μl of inoculum into 10 ml of CAMHB or 25 μl of inoculum into 10 ml of CAMHB). H. influenzae: HTM Streptococci: CAMHB+3% lysed horse blood Other strains in the panel: CAMHB 2.4. Prepare Assay Plates A. Add 100 μl of the bacterial inoculum to each well of the compound plates except wells B12, D12, F12 and H12. B. Add 100 μl of medium broth to wells B12, D12, F12 and H12 of the compound plates. C. Stack four plates together and cover with a sterile plate lid. Incubate in an ambient-air incubator at 35±2° C. for 16-20 hours (24 hours for MRSA). […] Perform Colony Counts A. Dilute the bacterial inoculum (0.5 McFarland) to a serial of 10-1 to 10-7 in saline solution (e.g. 100 μl bacterial inoculum+900 μl of saline). B. Spread 100 μl of each dilution (10-4, 10-5, 10-6, and 10-7) onto CAMHA plates in triplication, let the liquid soak into the agar for 10 minutes, invert the agar plates and incubate for 24 hr at 35±2° C. […] Record MICs and Calculate CFUs A. Open the compound plate layout in the compound management system, and check the assay plate barcode. B. Place the assay plate on the top of MIC reader, and adjust the magnification mirror to read each wells, record growth status as raw data. (Optional) Record photo image of each assay plates using high-speed high-resolution scanner. C. Determine MIC break points according to CLSI guideline. D. Count colonies and calculate CFU of bacterial inoculum.

[13] = test system: Haemophilus influenzae; assay: MIC screening, broth microdilution (CLSI)
Experimental: as §11, §6
Haemophilus influenzae: chocolate agar, 5% CO2
as §7, §8, §9, §10

[14] = test system: Acinetobacter calcoaceticus; assay: MIC screening, broth microdilution (CLSI)
Experimental: as §11, §8, §9, §10

[15] = test system: Escherichia coli; assay: MIC screening, broth microdilution (CLSI)
Experimental: as §11, §8, §9, §10

[16] = test system: Klebsiella pneumoniae; assay: MIC screening, broth microdilution (CLSI)
Experimental: as §11, §8, §9, §10

[17] = test system: Pseudomonas aeruginosa; assay: MIC screening, broth microdilution (CLSI)
Experimental: as §11, §8, §9, §10

[18] = test system: Staphylococcus aureus; assay: MIC screening, broth microdilution (CLSI)
Experimental: as §11, §8, §9, §10

[19] = target: CDK1/CyclinB (Homo sapiens, UniProt P06493); assay: Kinase activity assay; format: biochemical; details: listed = inhibited more than 60%
Experimental: as §1, §2, §3, §4, §5

[20] = target: FLT1 (Homo sapiens, UniProt P17948); assay: Kinase activity assay; format: biochemical; details: listed = inhibited more than 60%
Experimental: as §1, §2, §3, §4, §5

[21] = target: KDR (Homo sapiens, UniProt P35968); assay: Kinase activity assay; format: biochemical; details: listed = inhibited more than 60%
Experimental: as §1, §2, §3, §4, §5

[22] = target: PI3Kβ (Homo sapiens, UniProt P42338); assay: Kinase activity assay; format: biochemical; details: listed = inhibited more than 60%
Experimental: as §1, §2, §3, §4, §5

[23] = Staphylococcus aureus (ATCC 43300), Exp 2
[24] = Staphylococcus aureus (MRSA, Erythromycin & clindamycin-resistant), Exp 2
[25] = Staphylococcus aureus, ATCC43300 / MRSA
[26] = Streptococcus pneumoniae, ATCC49619, Streptococcus pneumoniae (ATCC 49619), Exp 1
[27] = Streptococcus pneumoniae, ATCC49619, Streptococcus pneumoniae (ATCC 49619), Exp 2
[28] = Streptococcus pneumoniae, Streptococcus pneumoniae (Erythromycin-resistant), Exp 1
[29] = Streptococcus pneumoniae, Streptococcus pneumoniae (Erythromycin-resistant), Exp 2
[30] = Streptococcus pyogenes, ATCC700942, Streptococcus pyogenes (ATCC 700942), Exp 1
[31] = Streptococcus pyogenes, ATCC700942, Streptococcus pyogenes (ATCC 700942), Exp 2
[32] = Enterococcus faecalis, ATCC29212, Enterococcus faecalis (ATCC 29212), Exp 1
[33] = Enterococcus faecalis, ATCC29212, Enterococcus faecalis (ATCC 29212), Exp 2
[34] = Enterococcus faecium, ATCC700221, Enterococcus faecium (ATCC 700221), Exp 1
[35] = Enterococcus faecium, ATCC700221, Enterococcus faecium (ATCC 700221), Exp 2
[36] = ATCC29213, Staphylococcus aureus (ATCC 29213), Exp 1
[37] = ATCC29213, Staphylococcus aureus (ATCC 29213), Exp 2
[38] = Staphylococcus aureus (Levofloxacin-resistant), Exp 1
[39] = Staphylococcus aureus (Levofloxacin-resistant), Exp 2

PI3Kδ, sequence (O00329 whole entry, species assumed): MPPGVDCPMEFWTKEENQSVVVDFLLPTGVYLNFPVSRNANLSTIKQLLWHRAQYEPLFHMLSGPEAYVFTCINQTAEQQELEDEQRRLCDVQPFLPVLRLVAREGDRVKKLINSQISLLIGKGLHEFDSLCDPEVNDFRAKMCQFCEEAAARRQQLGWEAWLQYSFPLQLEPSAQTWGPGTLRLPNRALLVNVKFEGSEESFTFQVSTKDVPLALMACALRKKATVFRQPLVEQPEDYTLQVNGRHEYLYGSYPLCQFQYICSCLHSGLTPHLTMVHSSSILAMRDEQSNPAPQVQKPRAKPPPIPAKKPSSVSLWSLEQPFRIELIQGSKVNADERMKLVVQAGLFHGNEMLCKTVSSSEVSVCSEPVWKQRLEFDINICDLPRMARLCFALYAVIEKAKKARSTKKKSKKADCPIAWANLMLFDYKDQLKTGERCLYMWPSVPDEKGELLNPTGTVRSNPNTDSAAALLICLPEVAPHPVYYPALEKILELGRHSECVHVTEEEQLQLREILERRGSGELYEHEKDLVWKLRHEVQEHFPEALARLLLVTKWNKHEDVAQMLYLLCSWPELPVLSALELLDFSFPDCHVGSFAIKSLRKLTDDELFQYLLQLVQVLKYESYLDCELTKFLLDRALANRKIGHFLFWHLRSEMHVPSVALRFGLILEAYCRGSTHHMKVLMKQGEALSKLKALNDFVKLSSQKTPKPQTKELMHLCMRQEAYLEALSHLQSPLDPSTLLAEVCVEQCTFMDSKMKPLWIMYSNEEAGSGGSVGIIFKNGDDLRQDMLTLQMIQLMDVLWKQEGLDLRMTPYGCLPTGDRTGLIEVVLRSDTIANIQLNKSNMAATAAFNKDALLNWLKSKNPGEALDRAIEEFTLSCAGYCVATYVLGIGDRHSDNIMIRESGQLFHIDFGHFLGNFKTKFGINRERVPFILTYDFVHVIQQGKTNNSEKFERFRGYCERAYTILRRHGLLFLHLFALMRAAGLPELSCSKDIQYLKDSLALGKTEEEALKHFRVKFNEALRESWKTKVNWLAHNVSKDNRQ
PI3Kδ, sequence (P27986 whole entry partner, species assumed): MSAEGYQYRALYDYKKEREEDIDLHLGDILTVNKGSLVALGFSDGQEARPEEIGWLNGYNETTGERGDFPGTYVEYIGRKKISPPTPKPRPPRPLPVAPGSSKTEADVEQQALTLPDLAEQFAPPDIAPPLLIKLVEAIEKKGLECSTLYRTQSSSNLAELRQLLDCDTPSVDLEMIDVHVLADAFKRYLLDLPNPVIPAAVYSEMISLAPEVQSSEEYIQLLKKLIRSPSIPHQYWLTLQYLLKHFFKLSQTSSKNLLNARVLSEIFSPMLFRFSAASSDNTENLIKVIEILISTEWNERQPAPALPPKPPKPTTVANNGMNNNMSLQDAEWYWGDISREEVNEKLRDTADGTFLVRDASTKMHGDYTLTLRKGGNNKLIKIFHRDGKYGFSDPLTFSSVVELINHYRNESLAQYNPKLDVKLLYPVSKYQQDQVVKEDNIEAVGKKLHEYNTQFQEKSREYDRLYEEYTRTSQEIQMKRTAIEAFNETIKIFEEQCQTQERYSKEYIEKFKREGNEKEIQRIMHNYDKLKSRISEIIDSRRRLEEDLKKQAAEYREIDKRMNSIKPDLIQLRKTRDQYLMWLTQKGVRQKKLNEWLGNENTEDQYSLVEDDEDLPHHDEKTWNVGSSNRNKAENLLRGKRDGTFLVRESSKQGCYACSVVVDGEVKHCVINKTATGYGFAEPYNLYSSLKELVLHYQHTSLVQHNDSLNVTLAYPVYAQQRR
TrkA, sequence (P04629 33-796, species assumed): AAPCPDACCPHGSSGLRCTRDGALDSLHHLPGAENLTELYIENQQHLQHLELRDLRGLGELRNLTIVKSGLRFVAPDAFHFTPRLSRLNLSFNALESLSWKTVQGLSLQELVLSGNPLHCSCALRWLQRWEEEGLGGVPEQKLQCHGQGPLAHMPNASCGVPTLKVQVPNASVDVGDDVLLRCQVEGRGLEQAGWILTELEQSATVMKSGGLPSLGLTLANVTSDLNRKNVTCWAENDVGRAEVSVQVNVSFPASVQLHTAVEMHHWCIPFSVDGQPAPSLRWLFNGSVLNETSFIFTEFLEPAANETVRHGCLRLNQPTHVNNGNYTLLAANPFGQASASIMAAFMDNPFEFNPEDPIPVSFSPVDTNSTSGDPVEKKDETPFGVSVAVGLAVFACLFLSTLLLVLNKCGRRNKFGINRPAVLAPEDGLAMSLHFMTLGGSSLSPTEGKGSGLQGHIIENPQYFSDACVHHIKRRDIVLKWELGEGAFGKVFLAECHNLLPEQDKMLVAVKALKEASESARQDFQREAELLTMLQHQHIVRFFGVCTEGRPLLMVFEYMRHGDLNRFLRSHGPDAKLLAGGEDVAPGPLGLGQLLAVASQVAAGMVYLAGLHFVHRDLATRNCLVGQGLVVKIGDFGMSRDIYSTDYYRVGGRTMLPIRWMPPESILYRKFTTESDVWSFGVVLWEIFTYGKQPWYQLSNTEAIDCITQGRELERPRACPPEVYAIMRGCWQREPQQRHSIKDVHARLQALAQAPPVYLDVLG
PI3Kγ, sequence (P48736 whole entry, species assumed): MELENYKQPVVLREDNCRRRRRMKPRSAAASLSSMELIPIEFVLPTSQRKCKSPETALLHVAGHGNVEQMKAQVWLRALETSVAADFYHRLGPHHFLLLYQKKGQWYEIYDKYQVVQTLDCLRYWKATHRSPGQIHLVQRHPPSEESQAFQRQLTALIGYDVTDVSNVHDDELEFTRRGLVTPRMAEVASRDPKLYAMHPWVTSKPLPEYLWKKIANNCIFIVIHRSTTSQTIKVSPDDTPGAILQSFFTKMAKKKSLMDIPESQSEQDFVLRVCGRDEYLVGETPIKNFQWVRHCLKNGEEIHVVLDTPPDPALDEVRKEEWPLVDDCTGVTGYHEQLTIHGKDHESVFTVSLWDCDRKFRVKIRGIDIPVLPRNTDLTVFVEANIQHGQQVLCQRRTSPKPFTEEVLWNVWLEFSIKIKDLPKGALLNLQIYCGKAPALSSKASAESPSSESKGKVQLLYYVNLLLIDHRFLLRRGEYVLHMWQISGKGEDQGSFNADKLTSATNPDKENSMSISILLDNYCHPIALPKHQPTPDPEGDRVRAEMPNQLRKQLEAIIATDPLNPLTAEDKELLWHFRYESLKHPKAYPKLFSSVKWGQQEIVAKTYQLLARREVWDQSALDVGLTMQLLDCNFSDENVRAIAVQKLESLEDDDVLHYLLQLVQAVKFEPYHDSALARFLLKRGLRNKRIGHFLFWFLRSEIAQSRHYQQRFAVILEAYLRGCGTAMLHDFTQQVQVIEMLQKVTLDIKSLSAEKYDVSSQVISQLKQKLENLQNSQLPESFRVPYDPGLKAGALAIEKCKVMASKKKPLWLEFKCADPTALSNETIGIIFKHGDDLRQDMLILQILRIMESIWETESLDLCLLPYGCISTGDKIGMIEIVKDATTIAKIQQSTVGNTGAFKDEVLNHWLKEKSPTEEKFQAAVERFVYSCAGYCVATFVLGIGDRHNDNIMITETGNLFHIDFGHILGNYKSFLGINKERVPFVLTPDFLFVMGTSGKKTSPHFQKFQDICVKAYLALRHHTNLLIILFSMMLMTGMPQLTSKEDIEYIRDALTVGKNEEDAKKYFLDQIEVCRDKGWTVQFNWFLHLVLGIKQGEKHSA
PI3Kβ, sequence (P42338 whole entry, species assumed): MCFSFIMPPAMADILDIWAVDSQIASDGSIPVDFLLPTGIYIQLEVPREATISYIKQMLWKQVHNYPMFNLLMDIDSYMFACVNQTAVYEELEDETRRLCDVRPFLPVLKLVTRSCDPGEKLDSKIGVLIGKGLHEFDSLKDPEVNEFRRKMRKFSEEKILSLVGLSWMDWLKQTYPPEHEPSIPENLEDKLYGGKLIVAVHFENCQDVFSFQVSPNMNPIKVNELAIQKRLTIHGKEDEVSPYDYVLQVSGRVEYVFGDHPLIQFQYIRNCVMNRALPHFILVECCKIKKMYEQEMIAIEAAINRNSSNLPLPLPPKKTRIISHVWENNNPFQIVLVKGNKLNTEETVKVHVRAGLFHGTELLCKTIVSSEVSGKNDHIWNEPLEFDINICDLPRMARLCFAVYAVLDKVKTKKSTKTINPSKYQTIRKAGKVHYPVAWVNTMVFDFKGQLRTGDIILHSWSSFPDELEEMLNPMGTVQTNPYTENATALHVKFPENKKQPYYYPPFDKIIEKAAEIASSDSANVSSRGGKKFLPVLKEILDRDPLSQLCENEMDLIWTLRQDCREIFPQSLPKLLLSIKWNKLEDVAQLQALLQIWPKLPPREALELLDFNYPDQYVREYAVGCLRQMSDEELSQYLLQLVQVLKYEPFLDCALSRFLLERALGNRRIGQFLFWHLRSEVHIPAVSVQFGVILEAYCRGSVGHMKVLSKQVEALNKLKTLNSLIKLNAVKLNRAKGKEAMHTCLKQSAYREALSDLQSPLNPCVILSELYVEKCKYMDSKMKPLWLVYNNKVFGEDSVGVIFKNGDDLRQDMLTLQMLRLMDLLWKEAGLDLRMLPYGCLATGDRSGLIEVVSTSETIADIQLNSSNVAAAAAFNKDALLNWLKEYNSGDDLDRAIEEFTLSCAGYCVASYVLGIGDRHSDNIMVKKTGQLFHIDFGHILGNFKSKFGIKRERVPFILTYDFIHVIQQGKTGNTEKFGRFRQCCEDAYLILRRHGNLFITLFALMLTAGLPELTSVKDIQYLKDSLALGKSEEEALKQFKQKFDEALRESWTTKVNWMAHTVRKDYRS
PI3Kβ, sequence (P27986 whole entry partner, species assumed): as the sequence (P27986 whole entry partner, species assumed) above

Compound | Log P relative to resveratrol [2] | Kinases that inhibited more than 60% [3] | Kinases that inhibited more than 60% [5] | Kinases that inhibited more than 60% [6] | Kinases that inhibited more than 60% [7] | Kinases that inhibited more than 60% [8] | Kinases that inhibited more than 60% [9] | MIC [10, 23] [µg/mL] | MIC [10, 24] [µg/mL] | MIC [10, 25] [µg/mL] | MIC ([10]; Staphylococcus aureus, MRSA) [µg/mL] | MIC [11, 26] [µg/mL] | MIC [11, 27] [µg/mL] | MIC [11, 28] [µg/mL] | MIC [11, 29] [µg/mL] | MIC [11, 30] [µg/mL] | MIC [11, 31] [µg/mL] | MIC [12, 32] [µg/mL] | MIC [12, 33] [µg/mL] | MIC [12, 34] [µg/mL] | further results
CC(C)=CCOc1cc(O)cc(/C=C/c2ccc(O)c(O)c2)c1CC=C(C)C [USYDS14, (E)-2-(3-methyl-2-buten-1-yl)-3-(3-methyl-2-butenyloxy)-3′,4′,5-trihydroxystilbene] | – | – | – | – | – | – | – | – | – | – | – | – | – | – | – | – | – | – | – | – | TGI ([1]; BT-549, Breast Cancer): 1.63e-05 M; GI50 ([1]; BT-549, Breast Cancer): 4.27 µM; CC50 ([1]; BT-549, Breast Cancer): 46.9 µM
COc1cc(/C=C/c2cc(O)cc(OC)c2CC=C(C)C)ccc1O [USYDS1, (E)-2-(3-methyl-2-buten-1-yl)-4′,5-dihydroxy-3,3′-dimethoxystilbene] | almost twice that of the hydroxystilbene resveratrol | CDK2/CyclinA2 | FLT3 | PI3Kα | PI3Kγ | PI3Kδ | TrkA | 8 (≈ 23.5 µM) | 8 (≈ 23.5 µM) | 8 (≈ 23.5 µM) | 8 (≈ 23.5 µM) | 32 (≈ 94 µM) | 32 (≈ 94 µM) | 32 (≈ 94 µM) | 32 (≈ 94 µM) | 64 (≈ 188 µM) | 64 (≈ 188 µM) | 16 (≈ 47 µM) | 16 (≈ 47 µM) | 8 (≈ 23.5 µM) | Kinases that inhibited more than 60% [4]: CDK4/CyclinD3; MIC [12, 35]: 16 µg/mL (≈ 47 µM); MIC [13]: 32 µg/mL (≈ 94 µM); MIC ([13]; Exp 2): 32 µg/mL (≈ 94 µM); MIC [14]: > 64 µg/mL; MIC ([14]; Exp 2): >64 µg/mL; MIC ([15]; Exp 1): 16 µg/mL (≈ 47 µM); MIC ([15]; Exp 2): 16 µg/mL (≈ 47 µM); MIC [16]: > 64 µg/mL; MIC ([16]; Exp 2): >64 µg/mL; MIC [17]: > 64 µg/mL; MIC ([17]; Exp 2): >64 µg/mL; MIC [18, 36]: 16 µg/mL (≈ 47 µM); MIC [18, 37]: 8 µg/mL (≈ 23.5 µM); MIC [18, 38]: 8 µg/mL (≈ 23.5 µM); MIC [18, 39]: 8 µg/mL (≈ 23.5 µM)
COc1cc(/C=C/c2cc(O)cc(O)c2CC=C(C)C)ccc1O [USYDS10, (E)-2-(3-methyl-2-buten-1-yl)-3,4′,5-trihydroxy-3′-methoxystilbene] | – | CDK2/CyclinA2 | FLT3 | PI3Kα | PI3Kγ | PI3Kδ | TrkA | – | – | – | – | – | – | – | – | – | – | – | – | – | TGI ([1]; BT-549, unit not printed (M)): 1.90E−5; GI50 ([1]; BT-549, unit not printed (M)): 0.798 µM; CC50 ([1]; BT-549, unit not printed (M)): 49.3 µM; Kinases that inhibited more than 60% [19]: CDK1/CyclinB; Kinases that inhibited more than 60% [20]: FLT1; Kinases that inhibited more than 60% [21]: KDR; Kinases that inhibited more than 60% [22]: PI3Kβ
COc1cc(/C=C/c2cc(O)cc(OCC=C(C)C)c2)ccc1O [USYDS2, (E)-3-(3-methyl-2-butenyloxy)-4′,5-dihydroxy-3′-methoxystilbene] | almost twice that of the hydroxystilbene resveratrol | – | – | – | PI3Kγ | PI3Kδ | TrkA | 16 (≈ 49 µM) | 16 (≈ 49 µM) | 16 (≈ 49 µM) | 16 (≈ 49 µM) | 32 (≈ 98 µM) | 32 (≈ 98 µM) | 32 (≈ 98 µM) | 64 (≈ 196 µM) | 64 (≈ 196 µM) | 64 (≈ 196 µM) | 32 (≈ 98 µM) | 32 (≈ 98 µM) | 32 (≈ 98 µM) | Kinases that inhibited more than 60% [22]: PI3Kβ; MIC [12, 35]: 32 µg/mL (≈ 98 µM); MIC [13]: 32 µg/mL (≈ 98 µM); MIC ([13]; Exp 2): 32 µg/mL (≈ 98 µM); MIC [14]: > 64 µg/mL; MIC ([14]; Exp 2): >64 µg/mL; MIC ([15]; Exp 1): 64 µg/mL (≈ 196 µM); MIC ([15]; Exp 2): 32 µg/mL (≈ 98 µM); MIC [16]: > 64 µg/mL; MIC ([16]; Exp 2): >64 µg/mL; MIC [17]: > 64 µg/mL; MIC ([17]; Exp 2): >64 µg/mL; MIC [18, 36]: 32 µg/mL (≈ 98 µM); MIC [18, 37]: 16 µg/mL (≈ 49 µM); MIC [18, 38]: 16 µg/mL (≈ 49 µM); MIC [18, 39]: 16 µg/mL (≈ 49 µM)
